Our source for the solubility, half-life and IC50 values is US20230106506A1, “NOVEL PqsR INVERSE AGONISTS” (Helmholtz-Zentrum Fur Infektionsforschung GmbH, priority 2020, published 2023).

The structures appear in SMILES notation.

A short description of data set [1]: Kinetic turbidimetric aqueous solubility. Type of data set: physicochemical. The note with it: aqueous buffer, kinetic from dmso stock; PBS buffer, final DMSO 2%, absorbance 620 nm; read-out: Kinetic Turbidimetric Aqueous Solubility at room temperature for 5 min. Here is the method:
Kinetic Turbidimetric Aqueous Solubility at room temperature for 5 min. […] Data was analyzed by fitting a four parameter sigmoidal function to the measured and normalized absorbances and AUC calculation providing access to Log S (decadic logarithm of the solubility).

Data set [2] in a line: Metabolic stability in mouse liver microsomes (MLM). In kind it is in vitro ADME. The note with it: 1 μM compound, 0.5 mg/mL MLM, 1 mM NADPH, 37° C., read-out: half-life (t1/2) towards MLM. The procedure:
For the evaluation of phase I metabolic stability, the compound (1 μM) was incubated with 0.5 mg/mL MLM (Corning) and 1 mM NADPH at 37° C. for 0, 5, 10, 15 and 30 min. The metabolic stability of Verapamil, Diphenhydramine and Benzydamine (1 μM each) were determined in parallel to confirm the enzymatic activity of the MLM. The incubation was stopped by addition of 2 volumes of acetonitrile containing internal standard (1 μM Leucine Enkephaline). Samples were centrifuged (15 min, 3,500 rpm). Concentration of the remaining test compound at the different time points was analyzed by HPLC-MS/MS and used to determine half-life (t1/2).
A general note: Liver microsomes are vesicles of endoplasmic reticulum, rich in cytochrome P450 enzymes.

The test system of data set [3] is P. aeruginosa pyocyanin production. As to the kind of experiment: Pyocyanin assay. Type of data set: cell-based, P. aeruginosa strain PA14. As to conditions: Pseudomonas aeruginosa, PA14, 16 h, read-out: IC50-value towards pyocyanin production. The procedure: Inhibition of P. aeruginosa pyocyanin production by compounds was determined photometrically as described before. In short, an overnight culture of PA14 in PPGAS medium was washed, diluted in medium to a start OD600 of 0.02, and incubated for 16 h (37° C., 200 rpm, relative humidity 75%) in the presence of test compounds. Then, cultures were extracted with chloroform and re-extracted with 0.2 M HCl. Protonated red colored pyocyanin was determined by measuring OD520 and normalizing to OD600.

A word on the solubility: it is the dissolved amount per volume that the medium holds. A word on the IC50: it is the point on the concentration scale where inhibition reaches its midpoint.

With `CC(C)Oc1ccc(-n2cc(CNc3cc(-c4cn[nH]c4)nc(C(F)(F)F)c3)nn2)cc1` [Compound 05, N-((1-(4-Isopropoxyphenyl)-1H-1,2,3-triazol-4-yl)methyl)-2-(1H-pyrazol-4-yl)-6-(trifluoromethyl)pyridin-4-amine], in data set [1], the solubility at 5 min is above 25 µM.
With `CC(C)Oc1ccc(-n2cc(CNc3cc(-n4cncn4)nc(C(F)(F)F)c3)nn2)cc1` [Compound 06, N-((1-(4-Isopropoxyphenyl)-1H-1,2,3-triazol-4-yl)methyl)-2-(1H-1,2,4-triazol-1-yl)-6-(trifluoromethyl)pyridin-4-amine], in data set [2], the half-life at 1 µM lay within 1.02 to 1.67 h. For the same compound, the solubility at 5 min in data set [1] was above 10 µM.
The like results for `CC(C)Oc1ccc(-c2ncc(CNc3cc(-c4nn[nH]n4)nc(C(F)(F)F)c3)s2)cc1` [Compound 19] were, in that order, above 1.67 h and at least 100 µM.
Consider `CC(C)Oc1ccc(-c2ccc(CNc3cc(-c4cn[nH]c4)nc(C(F)(F)F)c3)nn2)cc1` [Compound 22, N-((6-(4-Isopropoxyphenyl)pyridazin-3-yl)methyl)-2-(1H-pyrazol-4-yl)-6-(trifluoromethyl)pyridin-4-amine], for which, in data set [1], the solubility at 5 min was above 25 µM. For the same compound, the IC50 in data set [3] fell in the range of 201 to 500 nM.
For the compound `CC(C)Oc1ccc(-c2ccc(CNc3cc(-n4cncn4)nc(C(F)(F)F)c3)nc2)cc1` [Compound 25, N-((5-(4-Isopropoxyphenyl)pyridin-2-yl)methyl)-2-(1H-1,2,4-triazol-1-yl)-6-(trifluoromethyl)pyridin-4-amine], the half-life at 1 µM in data set [2] is above 1.67 h. Further, the IC50 in data set [3] was 101 to 200 nM.
The like results for `CC(C)Oc1ccc(-c2ccc(CNc3cc(-n4cncn4)nc(C(F)(F)F)c3)nc2)cc1Cl` [Compound 26, N-((5-(3-Chloro-4-isopropoxyphenyl)pyridin-2-yl)methyl)-2-(1H-1,2,4-triazol-1-yl)-6-(trifluoromethyl)pyridin-4-amine] were, in that order, above 1.67 h and 201 to 500 nM.
On to `CC(C)Oc1ccc(-c2ncc(CNc3cc(-n4ccnc4)nc(C(F)(F)F)c3)cn2)cc1` [Compound 29, 2-(1H-Imidazol-1-yl)-N-((2-(4-isopropoxyphenyl)pyrimidin-5-yl)methyl)-6-(trifluoromethyl)pyridin-4-amine], for which the half-life at 1 µM in data set [2] is above 1.67 h. Also, the IC50 in data set [3] was in the range of 101 to 200 nM.
In the same order, the values of `CC(C)Oc1ccc(-c2ncc(CNc3cc(-c4cc[nH]n4)nc(C(F)(F)F)c3)cn2)cc1Cl` [Compound 32, N-((2-(3-Chloro-4-isopropoxyphenyl)pyrimidin-5-yl)methyl)-2-(1H-pyrazol-3-yl)-6-(trifluoromethyl)pyridin-4-amine] are 1.02 to 1.67 h and 201 to 500 nM.
On to `N#Cc1cccc(-c2ncc(CNc3cc(-c4cn[nH]c4)nc(C(F)(F)F)c3)cn2)c1` [Compound 36, 3-(5-(((2-(1H-Pyrazol-4-yl)-6-(trifluoromethyl)pyridin-4-yl)amino)methyl)pyrimidin-2-yl)benzonitrile], for which, in data set [1], the solubility at 5 min is above 25 µM. Besides, in data set [3], the IC50 was in the range of 201 to 500 nM.
In the same order, the values of `Cc1ccc(-c2ncc(CNc3cc(-c4cn[nH]c4)nc(C(F)(F)F)c3)cn2)cc1C#N` [Compound 37, 5-(5-(((2-(1H-Pyrazol-4-yl)-6-(trifluoromethyl)pyridin-4-yl)amino)methyl)pyrimidin-2-yl)-2-methylbenzonitrile] are above 10 µM and 101 to 200 nM.
On to `N#Cc1cc(-c2ncc(CNc3cc(-c4cn[nH]c4)nc(C(F)(F)F)c3)cn2)ccc1F` [Compound 38, 5-(5-(((2-(1H-Pyrazol-4-yl)-6-(trifluoromethyl)pyridin-4-yl)amino)methyl)pyrimidin-2-yl)-2-fluorobenzonitrile], for which, in data set [1], the solubility at 5 min was above 25 µM. Further, the IC50 in data set [3] fell in the range of 101 to 200 nM.
In the same order, the values of `CC(C)Oc1ccc(-c2cnc(CNc3cc(-c4cn[nH]c4)nc(C(F)(F)F)c3)nc2)cc1` [Compound 40, N-((5-(4-Isopropoxyphenyl)pyrimidin-2-yl)methyl)-2-(1H-pyrazol-4-yl)-6-(trifluoromethyl)pyridin-4-amine] are above 10 µM and 201 to 500 nM.
For `CC(C)Oc1ccc(-c2ncc(CNc3cc(-c4cnc[nH]4)nc(C(F)(F)F)c3)cn2)cc1` [Compound 41, 2-(1H-Imidazol-5-yl)-N-((2-(4-isopropoxyphenyl)pyrimidin-5-yl)methyl)-6-(trifluoromethyl)pyridin-4-amine], in data set [2], the half-life at 1 µM is above 1.67 h. Moreover, the solubility at 5 min in data set [1] is above 10 µM.
With `CC(C)Oc1ccc(-c2cnc(CNc3cc(-n4cncn4)nc(C(F)(F)F)c3)nc2)cc1` [Compound 42, N-((5-(4-Isopropoxyphenyl)pyrimidin-2-yl)methyl)-2-(1H-1,2,4-triazol-1-yl)-6-(trifluoromethyl)pyridin-4-amine], the half-life at 1 µM in data set [2] is above 1.67 h. Besides, in data set [3], the IC50 fell in the range of 201 to 500 nM.
With `CC(C)Oc1ccc(-c2cnc(CNc3cc(-n4cncn4)nc(C(F)(F)F)c3)nc2)cc1Cl` [Compound 43, N-((5-(3-Chloro-4-isopropoxyphenyl)pyrimidin-2-yl)methyl)-2-(1H-1,2,4-triazol-1-yl)-6-(trifluoromethyl)pyridin-4-amine], the half-life at 1 µM in data set [2] is above 1.67 h. Also, the solubility at 5 min in data set [1] is above 10 µM.
With `CC(C)Oc1ccc(-c2cnc(CNc3cc(-c4cnn(C)c4)nc(C(F)(F)F)c3)nc2)cc1` [Compound 44, N-((5-(4-Isopropoxyphenyl)pyrimidin-2-yl)methyl)-2-(1-methyl-1H-pyrazol-4-yl)-6-(trifluoromethyl)pyridin-4-amine], the half-life at 1 µM in data set [2] is above 1.67 h. Besides, the IC50 in data set [3] was in the range of 201 to 500 nM.
On to `CC(C)Oc1ccc(-c2cnc(CNc3cc(-n4ccnc4)nc(C(F)(F)F)c3)nc2)cc1` [Compound 45, 2-(1H-Imidazol-1-yl)-N-((5-(4-isopropoxyphenyl)pyrimidin-2-yl)methyl)-6-(trifluoromethyl)pyridin-4-amine], for which, in data set [2], the half-life at 1 µM was above 1.67 h. Moreover, in data set [3], the IC50 was in the range of 201 to 500 nM.
For the compound `CC(C)Oc1ccc(-c2cnc(CNc3cc(-n4ccnc4)nc(C(F)(F)F)c3)nc2)cc1Cl` [Compound 46, N-((5-(3-Chloro-4-isopropoxyphenyl)pyrimidin-2-yl)methyl)-2-(1H-imidazol-1-yl)-6-(trifluoromethyl)pyridin-4-amine], the half-life at 1 µM in data set [2] is 1.02 to 1.67 h. The IC50 in data set [3] lay in the range of 201 to 500 nM.
With `N#Cc1cc(-c2ncc(CNc3cc(-c4cn[nH]c4)nc(C(F)(F)F)c3)cn2)ccc1Cl` [Compound 50, 5-(5-(((2-(1H-Pyrazol-4-yl)-6-(trifluoromethyl)pyridin-4-yl)amino)methyl)pyrimidin-2-yl)-2-chlorobenzonitrile], the IC50 in data set [3] was 101 to 200 nM.
Regarding `Fc1cccc(Oc2ccc(-c3ncc(CNc4cc(-c5cn[nH]c5)nc(C(F)(F)F)c4)cn3)cc2)c1` [Compound 52, N-((2-(4-(3-Fluorophenoxy)phenyl)pyrimidin-5-yl)methyl)-2-(1H-pyrazol-4-yl)-6-(trifluoromethyl)pyridin-4-amine], the half-life at 1 µM in data set [2] is above 1.67 h. For the same compound, in data set [3], the IC50 lay in the range of 101 to 200 nM.
The like results for `Fc1ccc(Oc2ccc(-c3ncc(CNc4cc(-c5cn[nH]c5)nc(C(F)(F)F)c4)cn3)cc2)cc1` [Compound 53, N-((2-(4-(4-Fluorophenoxy)phenyl)pyrimidin-5-yl)methyl)-2-(1H-pyrazol-4-yl)-6-(trifluoromethyl)pyridin-4-amine] were, in that order, above 1.67 h and 101 to 200 nM.
The like results for `CC(C)Oc1ccc(-c2ncc(CNc3cc(-n4cncn4)nc(C(F)(F)F)c3)cn2)cc1` [Compound 59, N-((2-(4-Isopropoxyphenyl)pyrimidin-5-yl)methyl)-2-(1H-1,2,4-triazol-1-yl)-6-(trifluoromethyl)pyridin-4-amine] were, in that order, above 1.67 h and 101 to 200 nM.
`FC(F)(F)c1cc(SCc2nc3cc(Oc4ccccc4)ccc3[nH]2)cc(-n2ccnc2)n1` [Compound 62, 2-(((2-(1H-Imidazol-1-yl)-6-(trifluoromethyl)pyridin-4-yl)thio)methyl)-5-phenoxy-1H-benzo[d]imidazole]: in data set [3], the IC50 fell in the range of 201 to 500 nM.
`FC(F)(F)c1nc(SCc2nc3cc(Oc4ccccc4)ccc3[nH]2)cc(-n2ccnc2)n1` [Compound 63, 2-(((6-(1H-Imidazol-1-yl)-2-(trifluoromethyl)pyrimidin-4-yl)thio)methyl)-5-phenoxy-1H-benzo[d]imidazole]: in data set [1], the solubility at 5 min is above 10 µM.
For `FC(F)(F)c1cc(SCc2nc3cc(Oc4ccccc4)ccc3[nH]2)cc(-c2cn[nH]c2)n1` [Compound 64, 2-(((2-(1H-pyrazol-4-yl)-6-(trifluoromethyl)pyridin-4-yl)thio)methyl)-5-phenoxy-1H-benzo[d]imidazole], the solubility at 5 min in data set [1] was above 10 µM. Moreover, in data set [3], the IC50 lay within 101 to 200 nM.
For the compound `CC(C)Oc1ccc(-c2ncc(CNc3cc(-c4cncs4)nc(C(F)(F)F)c3)cn2)cc1` [Compound 70, N-((2-(4-Isopropoxyphenyl)pyrimidin-5-yl)methyl)-2-(thiazol-5-yl)-6-(trifluoromethyl)pyridin-4-amine], the half-life at 1 µM in data set [2] was above 1.67 h. Besides, the IC50 in data set [3] was 101 to 200 nM.
